Experimental data reported in US12606541B2, “PPARg modulators and methods of use” (Eisai R&D Management Co., Ltd., priority 2020, dated 2026).

The compounds below were run against T1, His6-TEV-PPARγ-(234-505) (Homo sapiens, UniProt P37231) (assay: TR-FRET Assay to Measure Co-R Peptide Recruitment to PPARγ). Conditions: Co-R peptide recruitment to PPARγ; read-out: TR-FRET AC50.
T1 construct: The His6-TEV-PPARγ-(234-505) protein for assay was expressed and purified; TEV cleavage site (N); made in house
T1 sequence (P37231 234-505): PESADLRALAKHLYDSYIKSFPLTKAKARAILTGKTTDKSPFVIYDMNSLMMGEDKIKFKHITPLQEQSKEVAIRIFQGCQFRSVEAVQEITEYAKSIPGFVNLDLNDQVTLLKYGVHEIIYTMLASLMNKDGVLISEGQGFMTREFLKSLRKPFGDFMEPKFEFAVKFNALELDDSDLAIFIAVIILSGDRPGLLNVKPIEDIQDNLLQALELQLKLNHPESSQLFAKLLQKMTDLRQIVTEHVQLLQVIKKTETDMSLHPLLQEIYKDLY
Type: biochemical
In short: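 His-tagged PPARγ (or controls) was preincubated with compound for 20 minutes at room temperature, then 5 nM anti-His terbium antibody and 200 nM FITC-labeled SMRT-ID2 corepressor peptide (final) were added for a further hour. TR-FRET signal was normalized to percent response using 500 nM T0070907 and DMSO controls.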

AC50, > 1000 nM:
COc1cc(-c2cc(C(=O)N3CCC(C(=O)NCc4cccnn4)CC3)n[nH]2)c(Cl)cn1 [1-[5-(5-chloro-2-methoxypyridin-4-yl)-1H-pyrazole-3-carbonyl]-N-[(pyridazin-3-yl)methyl]piperidine-4-carboxamide]
COc1cc(-c2cc(C(=O)N3CCC(C(=O)NCc4ncccn4)CC3)n[nH]2)c(Cl)cn1 [1-[5-(5-chloro-2-methoxypyridin-4-yl)-1H-pyrazole-3-carbonyl]-N-[(pyrimidin-2-yl)methyl]piperidine-4-carboxamide]
COc1cc(-c2cc(C(=O)N3CCC(C(=O)NCc4ccncn4)CC3)n[nH]2)c(Cl)cn1 [1-[5-(5-chloro-2-methoxypyridin-4-yl)-1H-pyrazole-3-carbonyl]-N-[(pyrimidin-4-yl)methyl]piperidine-4-carboxamide]
COc1cc(-c2cc(C(=O)N3CCC(C(=O)NC4CC4)CC3)n[nH]2)c(Cl)cn1 [1-[5-(5-chloro-2-methoxypyridin-4-yl)-1H-pyrazole-3-carbonyl]-N-cyclopropylpiperidine-4-carboxamide]
COc1cc(-c2cc(C(=O)N3CCC(C(=O)N(C)C4CCC(C)CC4)CC3)n[nH]2)c(Cl)cn1 (stereo not shown) [1-[5-(5-chloro-2-methoxypyridin-4-yl)-1H-pyrazole-3-carbonyl]-N-methyl-N-(4-methylcyclohexyl)piperidine-4-carboxamide]
COc1cc(-c2cc(C(=O)N3CCC(C(=O)NC45CCC(C)(C4)OC5)CC3)n[nH]2)c(Cl)cn1 (stereo not shown) [1-[5-(5-chloro-2-methoxypyridin-4-yl)-1H-pyrazole-3-carbonyl]-N-{1-methyl-2-oxabicyclo[2.2.1]heptan-4-yl}piperidine-4-carboxamide]
COc1cc(-c2cc(C(=O)N3CCC(C(=O)NC45COC(C4)C5)CC3)n[nH]2)c(Cl)cn1 [1-[5-(5-chloro-2-methoxypyridin-4-yl)-1H-pyrazole-3-carbonyl]-N-{2-oxabicyclo[2.1.1]hexan-4-yl}piperidine-4-carboxamide]
COc1cc(-c2cc(C(=O)N3CCC(C(=O)NC45CC(F)(C4)C5)CC3)n[nH]2)c(Cl)cn1 [1-[5-(5-chloro-2-methoxypyridin-4-yl)-1H-pyrazole-3-carbonyl]-N-{3-fluorobicyclo[1.1.1]pentan-1-yl}piperidine-4-carboxamide]
COc1cc(-c2cc(C(=O)N3CCC(C(=O)NC45CCC(O)(CC4)CC5)CC3)n[nH]2)c(Cl)cn1 [1-[5-(5-chloro-2-methoxypyridin-4-yl)-1H-pyrazole-3-carbonyl]-N-{4-hydroxybicyclo[2.2.2]octan-1-yl}piperidine-4-carboxamide]
COc1cc(-c2cc(C(=O)N3CCC(C(=O)NCC4(N(C)C)CCCC4)CC3)n[nH]2)c(Cl)cn1 [1-[5-(5-chloro-2-methoxypyridin-4-yl)-1H-pyrazole-3-carbonyl]-N-{[1-(dimethylamino)cyclopentyl]methyl}piperidine-4-carboxamide]
COc1cc(-c2cc(C(=O)N3CCC(C(=O)NCc4ccccc4C(F)(F)F)CC3)n[nH]2)c(Cl)cn1 [1-[5-(5-chloro-2-methoxypyridin-4-yl)-1H-pyrazole-3-carbonyl]-N-{[2-(trifluoromethyl)phenyl]methyl}piperidine-4-carboxamide]
COc1cc(-c2cc(C(=O)N3CCC(C(=O)NCc4cc(F)cc(C(F)(F)F)c4)CC3)n[nH]2)c(Cl)cn1 [1-[5-(5-chloro-2-methoxypyridin-4-yl)-1H-pyrazole-3-carbonyl]-N-{[3-fluoro-5-(trifluoromethyl)phenyl]methyl}piperidine-4-carboxamide]
COc1cc(-c2cc(C(=O)N3CCC(C(=O)NCc4ncc(C(F)F)cn4)CC3)n[nH]2)c(Cl)cn1 [1-[5-(5-chloro-2-methoxypyridin-4-yl)-1H-pyrazole-3-carbonyl]-N-{[5-(difluoromethyl)pyrimidin-2-yl]methyl}piperidine-4-carboxamide]
